One test has as its target GTP-binding protein 4 (Homo sapiens, UniProt Q9BZE4).
Test [1] addresses T1, Serine/threonine-protein kinase TAO1 (Homo sapiens, UniProt Q7L7X3).
T1 sequence (Q7L7X3 whole entry): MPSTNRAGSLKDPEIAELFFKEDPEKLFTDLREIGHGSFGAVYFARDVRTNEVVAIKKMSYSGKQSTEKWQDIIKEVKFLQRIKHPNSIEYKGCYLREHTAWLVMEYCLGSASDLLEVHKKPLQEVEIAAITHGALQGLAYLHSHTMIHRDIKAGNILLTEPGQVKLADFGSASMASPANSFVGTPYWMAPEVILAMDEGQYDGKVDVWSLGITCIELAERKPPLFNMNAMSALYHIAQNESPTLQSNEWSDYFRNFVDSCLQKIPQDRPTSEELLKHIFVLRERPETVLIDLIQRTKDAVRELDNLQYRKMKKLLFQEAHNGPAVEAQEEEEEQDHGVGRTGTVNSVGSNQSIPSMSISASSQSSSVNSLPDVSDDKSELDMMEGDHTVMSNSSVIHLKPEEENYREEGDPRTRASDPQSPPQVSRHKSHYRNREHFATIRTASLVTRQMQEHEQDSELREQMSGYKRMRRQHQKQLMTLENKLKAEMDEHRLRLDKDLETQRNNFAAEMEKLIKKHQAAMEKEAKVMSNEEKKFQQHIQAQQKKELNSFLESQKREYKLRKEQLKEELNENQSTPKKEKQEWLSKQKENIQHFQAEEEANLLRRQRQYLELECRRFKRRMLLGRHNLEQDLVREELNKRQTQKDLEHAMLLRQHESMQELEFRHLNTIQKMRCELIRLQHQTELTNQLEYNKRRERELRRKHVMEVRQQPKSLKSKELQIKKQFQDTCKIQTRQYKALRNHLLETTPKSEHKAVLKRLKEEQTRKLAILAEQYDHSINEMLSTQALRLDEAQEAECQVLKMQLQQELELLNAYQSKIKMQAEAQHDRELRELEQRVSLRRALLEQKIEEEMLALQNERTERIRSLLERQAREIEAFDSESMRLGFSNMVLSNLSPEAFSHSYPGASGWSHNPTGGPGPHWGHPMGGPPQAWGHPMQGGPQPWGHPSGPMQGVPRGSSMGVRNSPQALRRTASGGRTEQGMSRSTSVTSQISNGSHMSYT

The target of test [2] is High affinity nerve growth factor receptor (Homo sapiens, UniProt P04629).
Sequence of High affinity nerve growth factor receptor (P04629 whole entry): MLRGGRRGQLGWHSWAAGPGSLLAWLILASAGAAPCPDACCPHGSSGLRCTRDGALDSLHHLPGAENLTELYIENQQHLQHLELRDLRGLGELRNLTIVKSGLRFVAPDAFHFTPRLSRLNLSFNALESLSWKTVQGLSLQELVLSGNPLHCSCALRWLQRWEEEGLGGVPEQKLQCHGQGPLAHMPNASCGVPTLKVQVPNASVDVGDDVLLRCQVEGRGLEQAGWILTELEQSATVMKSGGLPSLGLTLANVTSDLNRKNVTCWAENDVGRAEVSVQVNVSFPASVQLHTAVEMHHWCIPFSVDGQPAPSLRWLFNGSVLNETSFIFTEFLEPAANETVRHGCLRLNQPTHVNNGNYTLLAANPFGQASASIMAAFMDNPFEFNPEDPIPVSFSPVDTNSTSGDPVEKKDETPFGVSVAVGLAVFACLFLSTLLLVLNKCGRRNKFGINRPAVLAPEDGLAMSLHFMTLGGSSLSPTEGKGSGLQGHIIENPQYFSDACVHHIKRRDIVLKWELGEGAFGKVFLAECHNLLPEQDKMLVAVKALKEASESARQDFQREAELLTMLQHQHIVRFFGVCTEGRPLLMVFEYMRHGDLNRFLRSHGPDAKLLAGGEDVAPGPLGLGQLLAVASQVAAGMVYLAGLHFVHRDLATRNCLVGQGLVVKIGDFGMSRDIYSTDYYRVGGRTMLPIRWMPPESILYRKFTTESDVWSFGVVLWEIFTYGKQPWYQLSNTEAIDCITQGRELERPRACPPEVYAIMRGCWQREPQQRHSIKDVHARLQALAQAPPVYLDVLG
Test [3] deals with Mitogen-activated protein kinase 3 (Homo sapiens, UniProt P27361).
Sequence of Mitogen-activated protein kinase 3 (P27361 whole entry): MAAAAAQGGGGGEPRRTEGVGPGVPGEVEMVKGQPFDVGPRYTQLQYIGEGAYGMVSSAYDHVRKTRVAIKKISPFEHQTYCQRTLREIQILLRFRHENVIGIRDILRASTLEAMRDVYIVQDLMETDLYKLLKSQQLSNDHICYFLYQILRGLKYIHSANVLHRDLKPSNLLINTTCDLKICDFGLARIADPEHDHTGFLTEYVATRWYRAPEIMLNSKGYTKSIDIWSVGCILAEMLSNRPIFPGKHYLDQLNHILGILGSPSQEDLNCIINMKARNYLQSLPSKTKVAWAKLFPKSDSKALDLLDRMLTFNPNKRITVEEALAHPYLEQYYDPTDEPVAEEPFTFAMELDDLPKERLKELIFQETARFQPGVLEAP
The target of test [4] is T2, DNA replication licensing factor MCM4 (Homo sapiens, UniProt P33991).
T2 sequence (P33991 whole entry): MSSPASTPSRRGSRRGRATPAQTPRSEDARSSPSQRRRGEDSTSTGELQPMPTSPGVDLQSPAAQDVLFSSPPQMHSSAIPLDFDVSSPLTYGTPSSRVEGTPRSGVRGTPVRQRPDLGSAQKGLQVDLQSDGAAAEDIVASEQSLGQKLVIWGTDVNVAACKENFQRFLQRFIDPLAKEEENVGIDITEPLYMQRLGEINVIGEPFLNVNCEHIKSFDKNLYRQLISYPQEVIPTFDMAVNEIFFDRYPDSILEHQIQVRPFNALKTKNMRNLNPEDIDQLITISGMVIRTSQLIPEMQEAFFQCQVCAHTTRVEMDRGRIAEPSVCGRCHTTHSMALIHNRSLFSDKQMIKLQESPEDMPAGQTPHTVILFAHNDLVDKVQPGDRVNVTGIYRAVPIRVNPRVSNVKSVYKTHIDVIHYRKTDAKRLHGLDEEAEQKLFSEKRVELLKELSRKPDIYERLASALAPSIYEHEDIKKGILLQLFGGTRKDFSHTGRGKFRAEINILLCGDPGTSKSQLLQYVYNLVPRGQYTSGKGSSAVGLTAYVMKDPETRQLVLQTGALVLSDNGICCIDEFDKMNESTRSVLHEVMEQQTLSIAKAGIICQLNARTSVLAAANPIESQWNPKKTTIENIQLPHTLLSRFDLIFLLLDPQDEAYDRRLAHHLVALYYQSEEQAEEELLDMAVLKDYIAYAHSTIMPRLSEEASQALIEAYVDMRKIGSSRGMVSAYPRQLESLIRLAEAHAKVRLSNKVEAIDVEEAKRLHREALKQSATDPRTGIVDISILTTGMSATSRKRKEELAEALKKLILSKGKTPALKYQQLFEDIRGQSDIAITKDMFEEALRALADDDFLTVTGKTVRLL

The target of test [5] is Tyrosine-protein kinase HCK (Homo sapiens, UniProt P08631).
Sequence of Tyrosine-protein kinase HCK (P08631 whole entry): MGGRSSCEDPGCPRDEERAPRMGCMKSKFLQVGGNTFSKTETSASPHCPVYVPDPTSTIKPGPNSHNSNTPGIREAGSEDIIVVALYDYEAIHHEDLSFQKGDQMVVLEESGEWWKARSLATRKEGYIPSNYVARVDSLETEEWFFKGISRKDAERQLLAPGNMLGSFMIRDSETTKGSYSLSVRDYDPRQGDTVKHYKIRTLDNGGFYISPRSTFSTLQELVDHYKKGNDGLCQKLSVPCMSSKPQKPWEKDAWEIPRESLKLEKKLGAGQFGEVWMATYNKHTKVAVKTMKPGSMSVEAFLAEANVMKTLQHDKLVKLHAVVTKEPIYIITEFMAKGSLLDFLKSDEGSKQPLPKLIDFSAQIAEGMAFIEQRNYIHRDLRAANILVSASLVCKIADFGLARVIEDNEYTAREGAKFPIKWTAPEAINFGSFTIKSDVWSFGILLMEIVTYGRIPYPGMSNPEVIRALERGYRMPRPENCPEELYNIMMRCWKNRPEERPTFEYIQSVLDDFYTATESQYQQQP
Test [6] has as its target T3, Inhibitor of nuclear factor kappa-B kinase subunit epsilon (Homo sapiens, UniProt Q14164).
T3 sequence (Q14164 whole entry): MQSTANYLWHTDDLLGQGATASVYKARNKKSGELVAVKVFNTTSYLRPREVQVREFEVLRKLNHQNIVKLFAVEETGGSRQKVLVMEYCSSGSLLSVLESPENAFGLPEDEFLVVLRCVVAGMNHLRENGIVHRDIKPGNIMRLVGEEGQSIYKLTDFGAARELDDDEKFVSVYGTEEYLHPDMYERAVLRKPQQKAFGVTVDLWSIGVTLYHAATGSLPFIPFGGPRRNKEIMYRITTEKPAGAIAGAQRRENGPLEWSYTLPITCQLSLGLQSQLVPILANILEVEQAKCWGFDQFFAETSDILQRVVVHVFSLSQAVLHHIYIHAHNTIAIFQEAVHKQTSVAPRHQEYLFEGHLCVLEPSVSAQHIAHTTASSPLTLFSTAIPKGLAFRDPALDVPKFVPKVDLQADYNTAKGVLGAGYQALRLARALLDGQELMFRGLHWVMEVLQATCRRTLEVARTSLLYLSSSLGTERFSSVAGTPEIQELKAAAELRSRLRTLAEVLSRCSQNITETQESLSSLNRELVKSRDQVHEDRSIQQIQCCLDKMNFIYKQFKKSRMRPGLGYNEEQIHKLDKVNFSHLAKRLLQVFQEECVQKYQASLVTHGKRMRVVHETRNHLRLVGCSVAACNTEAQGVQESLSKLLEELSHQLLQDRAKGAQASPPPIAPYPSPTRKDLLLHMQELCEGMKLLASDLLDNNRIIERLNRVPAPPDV

The target of test [7] is Protein kinase C beta type (Homo sapiens, UniProt P05771).
Sequence of Protein kinase C beta type (P05771 whole entry): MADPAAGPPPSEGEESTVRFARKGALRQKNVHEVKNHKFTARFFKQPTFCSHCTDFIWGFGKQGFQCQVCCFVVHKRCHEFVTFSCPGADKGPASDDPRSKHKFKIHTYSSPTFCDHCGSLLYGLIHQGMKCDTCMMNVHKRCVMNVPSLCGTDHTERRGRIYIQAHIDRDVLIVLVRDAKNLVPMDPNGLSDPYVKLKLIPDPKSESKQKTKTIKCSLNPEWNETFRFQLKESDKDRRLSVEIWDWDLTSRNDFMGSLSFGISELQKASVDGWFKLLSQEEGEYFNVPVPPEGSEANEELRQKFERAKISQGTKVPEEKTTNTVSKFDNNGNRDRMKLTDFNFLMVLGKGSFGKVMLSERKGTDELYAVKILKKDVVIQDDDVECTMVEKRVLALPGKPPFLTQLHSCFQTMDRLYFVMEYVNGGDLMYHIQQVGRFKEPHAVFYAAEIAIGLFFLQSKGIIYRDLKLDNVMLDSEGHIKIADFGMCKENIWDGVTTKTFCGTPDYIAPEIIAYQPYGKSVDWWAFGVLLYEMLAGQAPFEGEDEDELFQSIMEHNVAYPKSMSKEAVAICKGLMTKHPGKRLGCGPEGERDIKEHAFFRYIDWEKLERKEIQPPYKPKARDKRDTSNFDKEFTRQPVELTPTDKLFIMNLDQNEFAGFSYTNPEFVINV
In test [8] the target is cAMP-dependent protein kinase catalytic subunit alpha (Homo sapiens, UniProt P17612).
Test [9] has as its target Cyclin-dependent kinase 7 (Homo sapiens, UniProt P50613).
Another test has as its target Adenosine kinase (Homo sapiens, UniProt P55263).

Each structure is given as a SMILES string. The source made the active and inactive calls. Cut-off read from the data, not from the text of the source, for most assays here: actives have a measured Kd and inactives only a lower limit.
Note: in the data inactive means no Kd found up to 30 µM.

Sequence of Adenosine kinase (P55263 whole entry): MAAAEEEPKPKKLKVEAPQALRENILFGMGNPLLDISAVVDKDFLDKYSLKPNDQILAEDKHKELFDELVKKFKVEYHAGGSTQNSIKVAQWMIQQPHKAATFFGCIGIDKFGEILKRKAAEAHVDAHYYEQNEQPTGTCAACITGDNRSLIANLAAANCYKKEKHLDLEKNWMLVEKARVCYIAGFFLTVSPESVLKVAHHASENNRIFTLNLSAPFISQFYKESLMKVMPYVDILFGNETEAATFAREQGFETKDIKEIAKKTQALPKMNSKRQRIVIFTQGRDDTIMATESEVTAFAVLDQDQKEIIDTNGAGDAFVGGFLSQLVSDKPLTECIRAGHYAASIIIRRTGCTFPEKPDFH
Sequence of Cyclin-dependent kinase 7 (P50613 whole entry): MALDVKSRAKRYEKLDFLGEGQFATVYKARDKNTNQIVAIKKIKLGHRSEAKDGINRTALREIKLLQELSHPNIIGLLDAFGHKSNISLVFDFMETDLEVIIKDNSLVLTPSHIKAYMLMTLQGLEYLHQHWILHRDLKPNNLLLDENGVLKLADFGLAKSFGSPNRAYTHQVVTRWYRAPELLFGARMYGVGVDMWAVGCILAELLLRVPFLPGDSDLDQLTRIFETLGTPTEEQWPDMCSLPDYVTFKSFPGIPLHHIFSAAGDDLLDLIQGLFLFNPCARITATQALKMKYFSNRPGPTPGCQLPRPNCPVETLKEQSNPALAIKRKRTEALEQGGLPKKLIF

In the case of `Cc1nc(Nc2n[nH]c3c2CN(C(=O)N[C@H](CN(C)C)c2ccccc2)C3(C)C)c2sccc2n1` [PF-03758309], the Kd on GTP-binding protein 4 was > 30 µM (inactive); in [1], > 30 µM (inactive); in [2], 2.21 µM; in test [3], 3.87 µM (active); in [4], > 30 µM (inactive); in [5], > 30 µM (inactive). Moreover, the Kd is 0.658 µM (active) in test [6]; 5.89 µM (active) in test [7]; 0.935 µM (active) in test [8]; 0.003 µM (active) in [9]; > 30 µM (inactive) at Adenosine kinase.
Take `Cc1cnc(NC(=O)Nc2cc(Br)c(C)cc2OC[C@@H]2CNCCO2)cn1` [RABUSERTIB]: the Kd (on GTP-binding protein 4; in [1]; in [2]; in test [3]; in test [4]; in [5]) was > 30 µM (inactive) each time. Also, the Kd (in test [6]; in [7]; in test [8]; in test [9]; on Adenosine kinase) was > 30 µM (inactive) throughout.
Consider `CO[C@H]1C[C@@H]2CC[C@@H](C)[C@@](O)(O2)C(=O)C(=O)N2CCCC[C@H]2C(=O)O[C@H]([C@H](C)C[C@@H]2CC[C@@H](OP(C)(C)=O)[C@H](OC)C2)CC(=O)[C@H](C)/C=C(\C)[C@@H](O)[C@@H](OC)C(=O)[C@H](C)C[C@H](C)/C=C/C=C/C=C/1C` [RIDAFOROLIMUS], for which the Kd (at GTP-binding protein 4; in test [1]; in test [2]; in [3]; in [4]; in [5]) was > 30 µM (inactive) each time. Also, the Kd (in [6]; in [7]; in test [8]; in [9]; at Adenosine kinase) was > 30 µM (inactive) throughout.
With `N#CC1(c2ccc(NC(=O)c3cccnc3NCc3ccncc3)cc2)CCCC1` [RIVOCERANIB], the Kd (at GTP-binding protein 4; in test [1]; in test [2]; in test [3]; in test [4]; in test [5]) was > 30 µM (inactive) throughout. In addition, the Kd (in [6]; in test [7]; in [8]; in test [9]; on Adenosine kinase) was > 30 µM (inactive) throughout.
Regarding `O=c1[nH]ccc2cc(OC3CCNCC3)ccc12` [SAR-407899 FREE BASE], the Kd (at GTP-binding protein 4; in [1]; in test [2]; in test [3]; in test [4]; in test [5]) was > 30 µM (inactive) throughout. The Kd was > 30 µM (inactive) in test [6]; > 30 µM (inactive) in test [7]; 0.013 µM in [8]; > 30 µM (inactive) in test [9]; > 30 µM (inactive) on Adenosine kinase.
In the case of `Cn1cc(-c2cnn3c(N)c(Br)c([C@@H]4CCCNC4)nc23)cn1` [SCH-900776], the Kd (at GTP-binding protein 4; in [1]; in test [2]; in [3]; in test [4]; in test [5]) was > 30 µM (inactive) throughout. For the same compound, the Kd (in [6]; in test [7]; in test [8]; in test [9]; on Adenosine kinase) was > 30 µM (inactive) throughout.
`CO[C@H]1C[C@@H]2CC[C@@H](C)[C@@](O)(O2)C(=O)C(=O)N2CCCC[C@H]2C(=O)O[C@H]([C@H](C)C[C@@H]2CC[C@@H](O)[C@H](OC)C2)CC(=O)[C@H](C)/C=C(\C)[C@@H](O)[C@@H](OC)C(=O)[C@H](C)C[C@H](C)/C=C/C=C/C=C/1C` [SIROLIMUS]: the Kd (at GTP-binding protein 4; in test [1]; in test [2]; in test [3]; in test [4]; in test [5]) was > 30 µM (inactive) throughout. The Kd (in test [6]; in test [7]; in test [8]; in test [9]; on Adenosine kinase) was > 30 µM (inactive) in each case.
In the case of `CO[C@H]1C[C@@H]2CC[C@@H](C)[C@@](O)(O2)C(=O)C(=O)N2CCCC[C@H]2C(=O)O[C@H]([C@H](C)C[C@@H]2CC[C@@H](OC(=O)C(C)(CO)CO)[C@H](OC)C2)CC(=O)[C@H](C)/C=C(\C)[C@@H](O)[C@@H](OC)C(=O)[C@H](C)C[C@H](C)/C=C/C=C/C=C/1C` [TEMSIROLIMUS], the Kd (at GTP-binding protein 4; in [1]; in test [2]; in [3]; in test [4]; in test [5]) was > 30 µM (inactive) in each case. Besides, the Kd (in test [6]; in test [7]; in test [8]; in test [9]; on Adenosine kinase) was > 30 µM (inactive) throughout.
